Measured values as given in patent US20030166213A1, “Methods for identifying compounds that modulate disorders related to nitric oxide/ cGMP-dependent protein kinase signaling” (priority 2000, published 2003).
“Also recorded” adds a separate entry of the source.

System: Drosophila melanogaster
Test: Effects of methylphenidate on rest (sleep) in flies, Drosophila Activity Monitoring System
Assay type: in vivo
Details: wild-type Canton-S virgin female flies; 0.5 mg/ml methylphenidate dissolved in the food; transferred two hours before lights-off; rest over the following 14 hours vs baseline; p<0.05
Protocol: Wild-type Canton-S (CS) flies were placed into a 50 ml vial containing yeast, dark corn syrup and agar food. Each colony was housed at 25° C. with a relative humidity of 50% in a Forma Scientific incubator. The flies were maintained on a 12:12 light/dark cycle with “lights-on” commencing at 8:00 am and “lights-off” commencing at 8:00 pm to yield darkness. Virgin females were collected and maintained in 50 ml vials for one day. During the second day, flies were individually placed into glass tubes (65 mm in length, 5 mm I.D.) containing about lomm of fresh food and the tubes were placed into the Drosophila Activity Monitoring System (Trikinetics, Waltham, Mass.). The flies remained undisturbed for the following 48 hours. The amount and distribution of rest was evaluated during the third day to ensure that the flies had adapted to the apparatus as previously described in Shaw et. al., Science 287:1834-1837 (2000). On day 4, two hours before lights-off, flies were transferred to fresh glass tubes containing only standard laboratory food or to tubes with 0.5 mg/ml methylphenidate that had been dissolved in the food. The amount and distribution of rest during the following 14 hours was then evaluated.

In the case of COC(=O)C(c1ccccc1)C1CCCCN1 (stereo not shown) [methylphenidate], the “amount and distribution of rest” value is reported as “rest was significantly reduced compared to baseline; also recorded: significant and substantial decrease in rest”.
